Measured values reported in the supplement of paper PMC10920090.

Legend:
Details in all cases: 72 h
[1] = test system: MDA-MB-231; assay: drug sensitivity score (DSS), cell viability CellTiter-Glo; higher = more sensitive; extreme values may be limits of the assay
[2] = test system: UT-SCC-24A; assay: as above
Procedure: (§1)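 Targeted FIMM drug screen of 23 compounds at 5 concentrations over a 10,000-fold range in 384-well plates, 1250 cells/well, 72 h at 37 °C. Read-outs were CellTiter-Glo viability and CellTox Green cytotoxicity, normalised to DMSO and benzethonium chloride controls and summarised as drug sensitivity score (DSS). Cells stably transduced with shScramble or one of two shPPFIA1 constructs (shPPFIA1_1 TRCN0000002969, shPPFIA1_2 TRCN0000342514).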

[3] = test system: BT-474; assay: as above
Procedure: as §1

[4] = test system: MDA-MB-231; assay: drug sensitivity score (DSS), cytotoxicity CellTox Green; higher = more cytotoxic; extreme values may be limits of the assay
[5] = test system: UT-SCC-24A; assay: as above
Procedure: as §1

[6] = test system: BT-474; assay: as above
Procedure: as §1

SMILES	drug sensitivity score ([1]; shRNA: shPPFIA1_1)	drug sensitivity score ([1]; shRNA: shScramble)	drug sensitivity score ([2]; shRNA: shPPFIA1_1)	drug sensitivity score ([2]; shRNA: shPPFIA1_2)	drug sensitivity score ([2]; shRNA: shScramble)	drug sensitivity score ([3]; shRNA: shPPFIA1_1)	drug sensitivity score ([3]; shRNA: shPPFIA1_2)	drug sensitivity score ([3]; shRNA: shScramble)	drug sensitivity score ([4]; shRNA: shPPFIA1_1)	drug sensitivity score ([4]; shRNA: shScramble)	drug sensitivity score ([5]; shRNA: shPPFIA1_1)	drug sensitivity score ([5]; shRNA: shPPFIA1_2)	drug sensitivity score ([5]; shRNA: shScramble)	drug sensitivity score ([6]; shRNA: shPPFIA1_1)	drug sensitivity score ([6]; shRNA: shPPFIA1_2)	drug sensitivity score ([6]; shRNA: shScramble)
CO[C@H]1C[C@@H]2CC[C@@H](C)[C@@](O)(O2)C(=O)C(=O)N2CCCC[C@H]2C(=O)O[C@H]([C@H](C)C[C@@H]2CC[C@@H](OCCO)[C@H](OC)C2)CC(=O)[C@H](C)/C=C(\C)[C@@H](O)[C@@H](OC)C(=O)[C@H](C)C[C@H](C)/C=C/C=C/C=C/1C [Everolimus]	0 DSS	6.1 DSS	1.3 DSS	2.5 DSS	2.9 DSS	5.2 DSS	3.6 DSS	5.2 DSS	0 DSS	0 DSS	0 DSS	0 DSS	0 DSS	0 DSS	0 DSS	0 DSS
O=C(NOCCO)c1ccc2cncn2c1Nc1ccc(I)cc1F [GDC-0623]	3.7 DSS	18.1 DSS	2 DSS	0 DSS	1.8 DSS	0 DSS	0 DSS	0 DSS	5.2 DSS	11.2 DSS	1.8 DSS	0 DSS	0.8 DSS	0 DSS	0 DSS	0 DSS
COc1cc2ncnc(Nc3ccc(F)c(Cl)c3)c2cc1OCCCN1CCOCC1 [Gefitinib]	2.3 DSS	2.3 DSS	19.6 DSS	18.4 DSS	12.1 DSS	7.8 DSS	9.1 DSS	10.8 DSS	0 DSS	0 DSS	19.4 DSS	17.3 DSS	8.3 DSS	4.1 DSS	5.6 DSS	4.8 DSS
COc1ccc(-c2ccc3ncc4c(c3c2)n(-c2ccc(N3CCNCC3)c(C(F)(F)F)c2)c(=O)n4C)cn1 [NVP-BGT226]	0.8 DSS	17.3 DSS	19.4 DSS	20.4 DSS	20.7 DSS	9.6 DSS	11.3 DSS	14.2 DSS	0 DSS	6.4 DSS	7.9 DSS	6.5 DSS	7.8 DSS	2.8 DSS	6.2 DSS	4.8 DSS
O=C(NC[C@H](O)CO)c1ccncc1Nc1ccc(I)cc1F [Pimasertib]	2.4 DSS	12.4 DSS	25.6 DSS	23.4 DSS	20.5 DSS	0.1 DSS	0.5 DSS	0.4 DSS	6.2 DSS	11.7 DSS	28.5 DSS	23.5 DSS	15.6 DSS	0 DSS	0.2 DSS	0 DSS
COc1cc(C(=O)NC2CCN(C)CC2)c(F)cc1Nc1ncc2c(n1)N(C1CCCC1)CC(F)(F)C(=O)N2C [TAK-960]	4.9 DSS	20.6 DSS	0 DSS	0 DSS	0 DSS	0 DSS	0 DSS	0 DSS	0 DSS	0.9 DSS	0 DSS	0 DSS	0 DSS	0 DSS	0 DSS	0 DSS
CO[C@H]1C[C@@H]2CC[C@@H](C)[C@@](O)(O2)C(=O)C(=O)N2CCCC[C@H]2C(=O)O[C@H]([C@H](C)C[C@@H]2CC[C@@H](OC(=O)C(C)(CO)CO)[C@H](OC)C2)CC(=O)[C@H](C)/C=C(\C)[C@@H](O)[C@@H](OC)C(=O)[C@H](C)C[C@H](C)/C=C/C=C/C=C/1C [Temsirolimus]	0 DSS	7.9 DSS	2.8 DSS	4.1 DSS	4.4 DSS	7.8 DSS	6.2 DSS	9.8 DSS	0 DSS	0 DSS	0 DSS	0 DSS	0 DSS	0 DSS	0 DSS	0 DSS
CC(=O)Nc1cccc(-n2c(=O)n(C3CC3)c(=O)c3c(Nc4ccc(I)cc4F)n(C)c(=O)c(C)c32)c1 [Trametinib]	0.7 DSS	12.4 DSS	19.6 DSS	18.5 DSS	15.4 DSS	0 DSS	0 DSS	0.1 DSS	5.3 DSS	12.5 DSS	18.9 DSS	18.4 DSS	7.8 DSS	0 DSS	0 DSS	0 DSS
C[C@@H]1COC(Nc2ccc3ncnc(Nc4ccc(OCc5nccs5)c(Cl)c4)c3c2)=N1 [Varlitinib]	1 DSS	21.3 DSS	10.7 DSS	11 DSS	9 DSS	8.2 DSS	9.3 DSS	10.7 DSS	0.2 DSS	0 DSS	10.3 DSS	10.1 DSS	4 DSS	3.1 DSS	4.5 DSS	3.9 DSS
CCC1=C[C@@H]2CN(C1)Cc1c([nH]c3ccccc13)[C@@](C(=O)OC)(c1cc3c(cc1OC)N(C)[C@H]1[C@@](O)(C(=O)OC)[C@H](OC(C)=O)[C@]4(CC)C=CCN5CC[C@]31[C@@H]54)C2 [Vinorelbine]	0 DSS	19.9 DSS	12 DSS	18 DSS	15.3 DSS	9.2 DSS	10 DSS	18.7 DSS	7.2 DSS	2.7 DSS	8.4 DSS	8.4 DSS	13.1 DSS	11.1 DSS	13.2 DSS	13.8 DSS
